This is an account of results in the METLIN SMRT retention time set (Domingo-Almenara et al. 2019).

The nature of this series: gradient 5% acetonitrile 3 min, to 50% in 2 min, to 85% in 15 min, held 3 min, 100 µL/min. To be noted: column: Zorbax Extend-C18 2.1 x 50 mm; eluents: water / acetonitrile, 0.1% formic acid. The method in brief:
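Retention time was recorded from adduct peaks, which were picked computationally and each inspected manually. Pure standards ran in mixtures of ~100 molecules on HPLC coupled to a quadrupole time-of-flight mass spectrometer, in positive and negative ionization mode, through a Zorbax Extend-C18 column (2.1 × 50 mm, 1.8 μm) at 100 μL/min. Eluents were water and acetonitrile, each with 0.1% formic acid.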
On to `CCOC(=O)c1nc(NCc2ccc(OC(C)C)cc2)c2c(C)noc2n1`, for which the RP-LC retention time stood at 1000 s. The value for `CCCNC(=O)Cn1ccn2nc(-c3ccccc3)c(CO)c2c1=O` was 684 s; that for `CCOc1ccc(N2CC(c3nnc(NC(=O)c4ccc(C(C)(C)C)cc4)o3)CC2=O)cc1` (stereo not given) was 935 s. In the case of `CCOC(=O)c1cccc(NC(=O)CCc2c(-c3ccccc3)nc3ccccn23)c1`, the RP-LC retention time stood at 984 s. With `COc1cccc2cc(C(=O)NCc3cccnc3)oc12` the figure was 564 s; with `COc1ccc(-c2noc(CN3CCN(c4ccc(OC)cc4)CC3)n2)cc1`, 809 s; with `CCOc1ccc(-c2noc(-c3nn(-c4ccc(F)cc4)c(=O)c4ccccc34)n2)cc1OC`, 1240 s. As to `COc1ccc2c(c1)C1(CCN(C(=O)c3ccc(C)cc3)C1)C(=O)N2` (stereo not given), the RP-LC retention time amounted to 727 s. The value for `CCOc1ccccc1-c1csc(NC(=O)Cc2csc(-c3ccccc3)n2)n1` was 1240 s; that for `CCc1ccc(OCC(=O)Nc2nnc(C3CC(=O)N(c4ccc(Cl)cc4)C3)o2)cc1` (stereo not given) was 888 s; that for `O=C1CC(c2noc(C3CCCC3)n2)CN1c1ccccc1` (stereo not given) was 917 s. For `COc1ccc(N2CC(c3noc(-c4ccc(Cl)cc4)n3)CC2=O)cc1OC` (stereo not given), the RP-LC retention time came out at 956 s. With `CCc1cccc(NC(=O)Cn2c(=O)c3cc(C)nn3c3ncccc32)c1`, the RP-LC retention time turned out to be 767 s. The value for `CCOC(=O)C(CC)Sc1ccc(NC(=O)c2cccs2)nn1` (stereo not given) was 908 s. With `O=C(Nc1cnc(N2CCCCC2)nc1)c1ccccc1Br` the figure was 902 s. The value for `COc1ccc(-c2nc(C3CC(=O)N(c4ccc(F)cc4)C3)no2)cc1F` (stereo not given) was 969 s; that for `COc1cccc(CN2CC=C(C(=O)N3CCN(c4ccccc4)CC3)CC2)c1` was 664 s; that for `O=C(CN1C(=O)C2CCCCN2c2ccc(S(=O)(=O)N3CCCC3)cc21)NCCc1ccco1` (stereo not given) was 885 s. `COc1ccc(C(C)NC(=O)c2cn3cc(Cl)ccc3n2)cc1` (stereo not given) had an RP-LC retention time of 833 s.

The molecule `COc1cc(OC)c(NC(=O)N(C)CCc2noc(COc3ccccc3)n2)cc1Cl` displayed an RP-LC retention time of 957 s.

The molecule `CC1CN(C(=O)CSc2cn(CC(=O)N(C(C)C)C(C)C)c3ccccc23)CC(C)O1` (stereo not given) yielded an RP-LC retention time of 959 s.

With `CCn1cc(CCN2CCC(C(=O)Nc3ccc(C)cc3)CC2)c2cccnc21`, the RP-LC retention time is 644 s.

The molecule `O=C(c1ccsc1)N1CCCC1(CO)Cc1ccccc1` (stereo not given) yielded an RP-LC retention time of 819 s. With `CCCn1cc(CCNS(=O)(=O)c2ccc(C)c(C)c2)c2cccnc21` the figure was 923 s; with `O=C(CNC(=O)c1ccccc1)Nc1nc2ccccc2[nH]1`, 598 s.

Molecule `CN1CC=C(c2noc(CCC(=O)NCc3ccc4c(c3)OCO4)n2)CC1` showed an RP-LC retention time of 587 s. `Cn1nnnc1C1CCCN(S(=O)(=O)Cc2ccccc2F)C1` (stereo not given) displayed an RP-LC retention time of 757 s. With `COc1ccc(NC(=O)C2CCCN(c3nnc4ccc(Cl)cn34)C2)c(OC)c1` (stereo not given) the figure was 701 s; with `CCCN1C(=O)C2CCC(=O)N2c2ccc(C(=O)NC(C)C)cc21` (stereo not given), 669 s; with `Cc1cccc(NC(=O)N2CCC(c3nc(C(=O)N(C)C)c(C)o3)CC2)c1C`, 697 s. The value for `CCOC(=O)CNC(=O)N(C)Cc1nc2cc(C(=O)N(C)C)ccc2n1C` was 566 s; that for `CS(=O)(=O)N1CCC(CC(=O)NC2CCCCC2)C1` (stereo not given) was 668 s. `Cc1c(Cl)cccc1S(=O)(=O)N1CCCN(c2ccc(=O)n(-c3ccccc3)n2)CC1` had an RP-LC retention time of 944 s. The value for `CC(C)NC(=O)N(C1CCOCC1)C1CN(C(=O)c2cncc(Br)c2)C1` was 604 s; that for `CCOC(=O)C1=C(CN2CC=C(c3ccccc3)CC2)NC(=O)NC1c1cccc(OC)c1OC` (stereo not given) was 704 s.

Regarding `O=C(CN1CCN(Cc2ccccc2Cl)CC1)Nc1nc(-c2ccccc2)cs1`, the RP-LC retention time was determined as 747 s. With `Cc1cccc(CNC(=O)C2CCN(CCc3cn(C)c4ncccc34)CC2)c1` the figure was 626 s; with `CCN(C(=O)CCCC(=O)OC)c1nc(-c2ccc(C)cc2)cs1`, 1180 s. With `CCCC(NC(=O)c1cccs1)C(=O)Nc1nc2ccccc2[nH]1` (stereo not given) the figure was 668 s; with `COc1ccccc1CC(=O)Nc1ccc2c(c1)Sc1ncccc1C(=O)N2C(C)C`, 855 s.

`CCc1nc(-c2ccc3c(c2)CCN3C(=O)Cc2ccc(OC)cc2)no1` showed an RP-LC retention time of 1040 s.

Molecule `Cc1ccc(Sc2c(-c3ccccc3)nc3ncccn23)cc1` displayed an RP-LC retention time of 1040 s. With `CCc1nc2cccnc2n1CCN1CCN(C(=O)Nc2ccccc2Br)CC1` the figure was 641 s; with `Cc1nc2ccccc2n1Cc1nnc2sc(-c3cccnc3)nn12`, 550 s; with `Cc1oc(-c2ccccc2)nc1Cc1noc(COc2ccc(F)cc2)n1`, 1100 s. For the molecule `CC1CCN(S(=O)(=O)c2cc(-c3nnc(C4CCC4)o3)co2)CC1`, the RP-LC retention time amounted to 999 s. The value for `Cc1ccc2c(c1)N(S(C)(=O)=O)CCC(C(=O)Nc1ccccc1Cl)O2` (stereo not given) was 1030 s; that for `Cn1c(=O)c(C(=O)NCc2ccccc2)nc2cccnc21` was 735 s. With `Cc1ccc(-c2nnc(CC(=O)NCC3CCCO3)o2)cc1` (stereo not given) the figure was 667 s. `COc1cccc2cc(C(=O)NC3CNC(=O)C3)oc12` (stereo not given) displayed an RP-LC retention time of 586 s. With `COc1ccc(C(=O)NC2CCCCCC2)cc1CN1CC(=O)N2CCCC2C1=O` (stereo not given) the figure was 702 s; with `Cc1ccc(N2CCC(NC(=O)Nc3ccccc3C)C2=O)cc1` (stereo not given), 823 s. With `COc1ccc2cc(C(=O)N3CC(n4cc(COCC5CC5)nn4)C3)[nH]c2c1` the figure was 745 s; with `CCn1cc(CN2CCC(C(=O)NC3CCCCC3)CC2)c2cc(OC)ccc21`, 688 s; with `Clc1ccc(-c2cc3c(N4CCN(C5CCCCC5)CC4)nccn3n2)cc1`, 806 s.

In the case of `CCOC(=O)c1cccc(NC2=NS(=O)(=O)C(c3ccc(OC)cc3)=C2C)c1`, the RP-LC retention time came out at 965 s.

`Cc1ccc2c(NCc3ccccc3)c(-c3nc(C4CC4)no3)cnc2n1`: the RP-LC retention time was 755 s. With `CCCN1C(=O)COc2ccc(-c3noc(-c4cccc(NC(C)=O)c4C)n3)cc21` the figure was 872 s; with `CCOC(=O)CNC(=O)Nc1cc(F)c2nc(N3CCCCC3)ccc2c1`, 596 s. With `CCc1ccc(CN2C(=O)c3c(C(=O)OC)ncn3CC2(C)C(=O)NC2CCCC2)cc1` (stereo not given) the figure was 816 s. `CCOC(=O)COc1ccc2c(c1)C(=O)CC1(CCN(C(C)=O)CC1)O2` came in with an RP-LC retention time of 718 s. The value for `CC1CCN(c2cc(-n3cnc(C(=O)N4CCC(C(N)=O)CC4)c3)ncn2)CC1` was 669 s; that for `CCOC(=O)c1c(S(=O)(=O)N2CCC(C(=O)NCC3CCCO3)CC2)c(C)n(C)c1C` (stereo not given) was 674 s; that for `O=C1c2ccccc2-c2onc3c(N4CCN(c5ccccn5)CC4)cc(N4CCCCC4)c1c23` was 600 s. The value for `CCOC(=O)c1cccc(NC(=O)C2CCN(C(=O)C3Sc4ccccc4NC3=O)CC2)c1` (stereo not given) was 812 s; that for `CCCCNC(=O)CCC(=O)N1CCCn2nc(-c3cn(C)c4ccccc34)cc21` was 778 s; that for `C=CCN(CC=C)S(=O)(=O)c1ccc(C(=O)Nc2nnc(CSC)o2)cc1` was 764 s. With `COc1cc(-c2nc(Cn3ccn4nc(-c5ccc(F)cc5)cc4c3=O)c(C)o2)cc(OC)c1OC` the figure was 996 s; with `CCSc1nc2ccc(NS(=O)(=O)c3ccc(Cl)cc3)cc2s1`, 1070 s. `CC(C)N1C(=O)c2cccnc2Sc2cc(NC(=O)C3(c4ccccc4)CC3)ccc21` showed an RP-LC retention time of 1020 s. The value for `Cc1cc(N)n(-c2nc(C)nc3sc4c(c23)CCC(C)C4)n1` (stereo not given) was 857 s; that for `Cn1nccc1C(=O)N1CCN(S(=O)(=O)c2ccc3c(c2)oc(=O)n3C)CC1` was 679 s. The value for `O=c1n(Cc2nc(-c3ccc(F)c(Br)c3)no2)nc2ccc(-c3ccccc3)nn12` was 1010 s; that for `CC(C(=O)Nc1cccc(Cl)c1)C1CCN(C(=O)Nc2ccc(F)cc2)CC1` (stereo not given) was 933 s; that for `COc1ccccc1NC(=O)Cn1nc2cc(C)nc(Nc3ccccc3)n2c1=O` was 1020 s. With `Cc1ccnn1-c1ccc(SCC(=O)Nc2cccc(F)c2)nn1` the figure was 870 s; with `COc1ccc(-n2ncc(C(=O)N3CCN(C(=O)c4ccco4)CC3)c2-n2cccc2)cc1`, 717 s.

With `CC(=O)Nc1ccc(C2(C(=O)NCc3ccccc3F)CCC2)cc1`, the RP-LC retention time is 732 s. Consider `CCCn1c(=O)sc2cc(S(=O)(=O)N3CCC(C(=O)Nc4ccc(F)cc4C)CC3)ccc21`, for which the RP-LC retention time was 974 s.

`CCCCOc1ccc(-c2nc(C3CC(=O)N(c4ccc(C)cc4)C3)no2)cc1` (stereo not given) displayed an RP-LC retention time of 1310 s.
